Measurements from patent USRE46792E1, “Oxazole compound and pharmaceutical composition” (Otsuka Pharmaceutical Co., Ltd., priority 2005, dated 2018).

Legend:
[1] = system: TNF-α production in mouse peripheral blood mononuclear cells; assay: Inhibitory activity measurement on TNF-α production (LPS-stimulated mouse peripheral blood mononuclear cells, ELISA); format: cell-based, mouse (male BALB/c); conditions: PBMC, LPS 1 μg/ml, 5 hours at 37° C., ELISA of culture supernatant
Method: Inhibitory Activity Measurement on TNF-α Production
TNF-α production inhibitory activity was evaluated according to the following tests.
(1) Isolation of Mononuclear Cells from Mouse Peripheral Blood
Mononuclear cells were isolated from heparinized blood obtained from male BALB/c mice (Charles River Laboratories, Japan) by density gradient centrifugation using Lympholyte-M (Cedarlane Laboratories). Viable cell numbers in the peripheral blood mononuclear cells were counted using trypan blue dye, and prepared in cell culture medium (RPMI 1640 medium containing 10% FCS) to 1.25×10^6 cells/ml.
(2) Induction of TNF-α Production
Test compounds were dissolved in DMSO, and test compound solutions were diluted for use in cell culture media. 20 μl test compound solutions of different concentrations and 160 μl peripheral blood mononuclear cell suspensions were placed in a 96-well plate, and cultured for 30 minutes. 20 μl (final concentration 1 μg/ml) lipopolysaccharide (LPS) derived from E. coli (serotype 055:B5) was added thereto to induce THF-α production. The mixtures were then cultured at 37° C. for 5 hours, and the culture supernatant was removed from each well.
(3) Measurement of TNF-α Concentration
TNF-α concentrations in the culture supernatants were measured by ELISA (OptEIA™ Set Mouse TNF-α, BD Pharmingen). The IC50 values (concentration which produced 50% inhibition of TNF-α production) for the test compounds were determined with the Excel (Microsoft Excel 2000 SR-1) statistical package using regression analysis function.

[2] = target: human PDE4D3 (PDE4D) (Homo sapiens (Human), UniProt Q08499); assay: Phosphodiesterase (PDE)4 inhibitory activity evaluation test ([3H]cAMP hydrolysis by PDE4D enzyme solution); format: biochemical; conditions: recombinant human PDE4D3 expressed in COS-7 cells; [3H]cAMP substrate; 10 min at 30° C.; 2% DMSO
Chain of human PDE4D3 (PDE4D) (Q08499 other isoform, or with tags, fused parts or gaps): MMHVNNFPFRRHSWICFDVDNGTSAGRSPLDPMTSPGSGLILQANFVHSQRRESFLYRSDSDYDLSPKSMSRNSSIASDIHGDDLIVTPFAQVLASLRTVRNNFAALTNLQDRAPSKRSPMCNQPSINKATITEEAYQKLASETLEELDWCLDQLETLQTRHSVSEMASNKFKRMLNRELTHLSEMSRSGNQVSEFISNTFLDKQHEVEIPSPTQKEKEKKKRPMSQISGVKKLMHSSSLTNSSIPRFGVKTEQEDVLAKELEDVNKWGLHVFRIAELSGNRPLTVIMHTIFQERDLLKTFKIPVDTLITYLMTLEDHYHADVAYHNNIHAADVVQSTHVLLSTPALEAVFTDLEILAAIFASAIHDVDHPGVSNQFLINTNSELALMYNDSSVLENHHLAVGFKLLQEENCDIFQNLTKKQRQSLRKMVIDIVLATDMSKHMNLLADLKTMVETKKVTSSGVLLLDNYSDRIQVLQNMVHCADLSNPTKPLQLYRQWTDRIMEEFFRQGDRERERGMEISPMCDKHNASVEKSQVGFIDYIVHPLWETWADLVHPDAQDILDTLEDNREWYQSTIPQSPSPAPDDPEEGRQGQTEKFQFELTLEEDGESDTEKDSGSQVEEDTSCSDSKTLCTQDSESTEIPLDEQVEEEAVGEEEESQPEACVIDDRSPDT
Summary of the method: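 Human PDE4D3 expressed in COS-7 cells; cell supernatant used as enzyme at a dilution giving 10–30% cAMP turnover. Compounds (10-fold serial dilutions, 2% final DMSO) incubated with enzyme and 2 μM [3H]cAMP stock in 20 mM Tris-HCl pH 7.4 with MgCl2 for 10 min at 30° C. Reaction stopped by boiling.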

| SMILES | IC50 [1] [nM] | IC50 [2] [nM] |
| --- | --- | --- |
| C=CCOc1ccccc1C(=O)CCc1coc(-c2ccc(OC)c(OCC3CC3)c2)n1 [Example 177, 1-(2-allyloxyphenyl)-3-[2-(3-cyclopropylmethoxy-4-methoxyphenyl)oxazol-4-yl]propan-1-one] | < 50 | < 50 |
| COc1ccc(-c2nc(CCC(=O)c3ncccc3C)co2)cc1OC1C=CCCC1 (stereo not shown) [Example 157, 3-{2-[3-(2-cyclohexenyloxy)-4-methoxyphenyl]oxazol-4-yl}-1-(3-methylpyridin-2-yl)propan-1-one] | < 50 | < 50 |
| COc1ccc(-c2nc(CCC(=O)c3ncccc3OC)co2)cc1OCC1CC1 [Example 126] | < 50 |  |
| COc1ccc(-c2nc(CNC(=O)c3c(F)cccc3OC)co2)cc1OCC1CC1 [Example 43, N-[2-(3-cyclopropylmethoxy-4-methoxyphenyl)oxazol-4-ylmethyl]-2-fluoro-6-methoxybenzamide] | < 50 | < 50 |
| Cc1cccnc1C(=O)NCc1coc(-c2ccc(OC(F)F)c(OCC3CC3)c2)n1 [Example 98, N-[2-(3-cyclopropylmethoxy-4-difluoromethoxyphenyl)oxazol-4-ylmethyl]-3-methylpicolinamide] |  | < 50 |
| COc1ccc(-c2nc(CNC(=O)c3ccccc3SC)co2)cc1OCC1CC1 [Example 44, N-[2-(3-cyclopropylmethoxy-4-methoxyphenyl)oxazol-4-ylmethyl]-2-methylsulfanylbenzamide] |  | < 50 |
| COc1ccc(-c2nc(CNC(=O)c3ncccc3C)co2)cc1OC1CCCC1 [Example 18, N-[2-(3-cyclopentyloxy-4-methoxyphenyl)oxazol-4-ylmethyl]-3-methylpicolinamide] | < 50 | < 50 |
| CCCOc1ccccc1C(=O)CCc1coc(-c2ccc(OC)c(OCC)c2)n1 [Example 195, 3-[2-(3-ethoxy-4-methoxyphenyl)oxazol-4-yl]-1-(2-propoxyphenyl)propan-1-one] |  | < 50 |
| COc1ccc(-c2nc(CNC(=O)c3ccccc3OCC(F)(F)F)co2)cc1OCC1CC1 [Example 32, N-[2-(3-cyclopropylmethoxy-4-methoxyphenyl)oxazol-4-ylmethyl]-2-(2,2,2-trifluoroethoxy)benzamide] |  | < 50 |
